Assay results taken from patent US20050039223A1, “Knock-in-mouse” (priority 2002, published 2005).

Tests used:
[1] = molecular target: T1, nAChR containing α4-T265I (control α4, mutated α4 and β2) (Homo sapiens, UniProt P17787+P43681, T293I); assay: ACh- and CBZ-dose effect, two electrode voltage clamp in Xenopus oocytes expressing receptors containing α4-T265I; type: cell-based
T1 construct: expressed in transfected cells; host or cells: Xenopus oocytes, nuclear cDNA injection
Description: Expression experiments in Xenopus oocytes were conducted as previously described (2). Nuclear cDNA injections were conducted using a ratio of 0.5 control α4, 0.5 mutated α4 and 1 β2 (total amount 2 ng/oocytes) (3). The oocytes were kept in BARTH solution containing 88 mM NaCl, 1 mM KCl, 2.4 mM NaHCO3, 10 mM HEPES, 0.82 mM MgSO47H2O, 0.33 mM Ca(NO3)2.4H2O, 0.41 mM CaCl2.6H2O, pH 7.4, adjusted with NaOH and supplemented with kanamycin (20 μg/ml), penicillin (100 μg/ml) and streptomycin (100 μg/ml). Recordings were made 2 to 3 days later using the two electrode voltage clamp technique with a GENE-CLAMP amplifier (Axon Instrument). During the experiments the oocytes were continuously rinsed with OR2 solution: 82.5 mM NaCl, 2.5 mM KCl, 2.5 mM CaCl2, 5 mM HEPES, pH 7.4, adjusted with NaOH. Unless stated otherwise, the holding potential was −100 mV and the experiments were performed at 18° C. ACh dose response curves were best fitted by the sum of two empirical Hill equations: y=Imax{a/(1+(EC50H/x)^nH1)+(1−a)/(1+(EC50L/x)^nH2)} (equation (1)). Imax is the maximal current amplitude and x is the agonist concentration. EC50H, nH1 and a are the half-effective concentration, the Hill coefficient the percentage of receptors in high-affinity state, respectively, whereas EC50L and nH2 correspond to the half-effective concentration and the Hill coefficient in low-affinity state. […]

ADNFLE = ADNFLE patients; antiepileptic drug resistant cases also exist; cited from earlier work

T1 sequence (P43681 29-627 T293I limits assumed): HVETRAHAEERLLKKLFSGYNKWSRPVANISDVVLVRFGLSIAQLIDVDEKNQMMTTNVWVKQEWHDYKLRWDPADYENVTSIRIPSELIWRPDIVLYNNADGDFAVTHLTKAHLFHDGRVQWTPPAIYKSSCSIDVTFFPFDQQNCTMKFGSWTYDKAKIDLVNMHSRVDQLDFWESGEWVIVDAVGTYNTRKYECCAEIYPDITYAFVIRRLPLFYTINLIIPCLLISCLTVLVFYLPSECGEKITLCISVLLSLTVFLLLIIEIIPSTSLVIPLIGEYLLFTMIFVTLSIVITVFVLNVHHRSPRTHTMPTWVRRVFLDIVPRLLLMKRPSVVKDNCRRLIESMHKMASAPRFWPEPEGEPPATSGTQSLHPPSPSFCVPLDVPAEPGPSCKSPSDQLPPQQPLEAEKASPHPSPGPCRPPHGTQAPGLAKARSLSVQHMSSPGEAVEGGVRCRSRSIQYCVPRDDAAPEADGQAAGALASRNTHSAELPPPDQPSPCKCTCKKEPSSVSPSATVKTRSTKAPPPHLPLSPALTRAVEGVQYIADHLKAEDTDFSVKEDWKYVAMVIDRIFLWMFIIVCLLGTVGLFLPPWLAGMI
T1 sequence (P43681 27-627, stated change not applied): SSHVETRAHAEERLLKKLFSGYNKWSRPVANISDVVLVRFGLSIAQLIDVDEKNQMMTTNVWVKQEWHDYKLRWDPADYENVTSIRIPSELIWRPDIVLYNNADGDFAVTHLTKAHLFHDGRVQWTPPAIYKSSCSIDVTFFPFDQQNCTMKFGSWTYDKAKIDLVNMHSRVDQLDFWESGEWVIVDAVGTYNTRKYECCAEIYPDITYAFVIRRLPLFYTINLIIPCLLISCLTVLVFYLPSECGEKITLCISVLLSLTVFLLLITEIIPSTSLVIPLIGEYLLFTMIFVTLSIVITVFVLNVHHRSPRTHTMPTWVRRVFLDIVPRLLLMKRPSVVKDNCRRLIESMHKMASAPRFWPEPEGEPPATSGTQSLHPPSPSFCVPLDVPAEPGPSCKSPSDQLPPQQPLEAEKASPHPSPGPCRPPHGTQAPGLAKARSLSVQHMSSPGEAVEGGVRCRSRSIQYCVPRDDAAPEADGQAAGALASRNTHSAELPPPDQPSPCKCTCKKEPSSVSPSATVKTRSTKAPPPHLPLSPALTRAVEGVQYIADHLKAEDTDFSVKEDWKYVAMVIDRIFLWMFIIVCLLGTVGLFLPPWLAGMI
T1 sequence (P17787 26-502): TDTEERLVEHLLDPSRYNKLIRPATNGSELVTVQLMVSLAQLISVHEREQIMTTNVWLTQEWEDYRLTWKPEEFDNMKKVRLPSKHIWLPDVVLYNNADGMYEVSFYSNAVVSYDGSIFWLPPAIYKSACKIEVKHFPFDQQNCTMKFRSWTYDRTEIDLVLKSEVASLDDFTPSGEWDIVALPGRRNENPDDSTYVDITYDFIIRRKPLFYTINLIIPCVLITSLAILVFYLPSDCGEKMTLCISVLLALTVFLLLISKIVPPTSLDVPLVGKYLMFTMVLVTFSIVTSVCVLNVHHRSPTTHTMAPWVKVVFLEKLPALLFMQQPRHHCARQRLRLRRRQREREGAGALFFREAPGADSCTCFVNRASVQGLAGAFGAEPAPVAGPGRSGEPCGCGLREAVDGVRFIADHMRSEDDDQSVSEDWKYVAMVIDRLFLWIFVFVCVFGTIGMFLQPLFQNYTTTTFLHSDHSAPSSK

SMILES	ACh-sensitivity of the mutated receptors ([1]; α4-T265I mutated receptors compared with control, Xenopus oocytes)	Carbamazepin-sensitivity ([1]; α4-T265I compared with control, CBZ inhibition of ACh-evoked currents)	Treatability of ADNFLE (ADNFLE)
CC(=O)OCC[N+](C)(C)C [ACh]	increased	–	–
NC(=O)N1c2ccccc2C=Cc2ccccc21 [Carbamazepin, Carbamazepine]	–	non-increased	can normally be well treated
